Biological target: arginine repressor ArgR
Test: SPR
Format: binding, Staphylococcus aureus

## O=c1oc2ccccc2c(O)c1C(c1ccc(Cl)c(Cl)c1)c1c(O)c2ccccc2oc1=O [DCH, 3,3′-(3,4-dichlorobenzylidene)-bis-(4-hydroxycoumarin)]
  Kd: 82 nM

— publication PMC7439407 (Science Advances, 2020)
